Test results published in patent US20250049749A1, “COMPOSITION FOR IMPROVING SLEEP QUALITY OR CONTROLLING AUTONOMIC NERVOUS SYSTEM” (OTSUKA PHARMACEUTICAL CO., LTD., priority 2021, published 2025).
“Also recorded” adds a separate entry of the source.

Experiments:
Format in all cases: in vivo, human
[1] = tested on: healthy adult men and women; experiment: Test 1: randomized, double-blind, placebo-controlled, crossover comparative test (sleep and autonomic nervous system, Fitbit Charge 4)
Procedure: A randomized, double-blind, placebo-controlled, crossover comparative test as summarized in the table below was conducted to examine the relationship between kaempferol, sleep, and the autonomic nervous system.
The granular foods used in the test were prepared according to the following procedure. Horseradish leaves were extracted twice with 50% aqueous ethanol at 50° C. and concentrated under reduced pressure. The concentrate was purified with resin to obtain a solution. Hemicellulase “Amano” 90 and Lactase F “Amano” (produced by Amano Enzyme, Inc.) were added to the solution to allow the enzyme to act thereon while stirring at 50° C. The resulting reaction liquid was then heated to 80° C. and maintained for 20 minutes to inactivate the enzyme. The resulting treated liquid was then freeze-dried to give an ethanol extract powder. This powder was combined with an equal amount (on a weight basis) of starch and erythritol and mixed into granules. The granules were packed in aluminum pouches in an amount of 116 mg (containing 10 mg of kaempferol) per pouch. The subjects ingested the contents of one pouch at one time (10 mg of kaempferol in total). The food used as a placebo was granules of starch and erythritol.
The sleep score is an index of sleep quality on a scale of 0 to 100, with a score of 90 to 100 indicating very good sleep quality, a score of 80 to 89 indicating good sleep quality, a score of 60 to 79 indicating slightly low sleep quality, and a score of 60 or less indicating low sleep quality. The sleeping heart rate is known to correlate with sleep quality. Specifically, it has been reported that the higher the heart rate during sleep, the less satisfactory the sleep obtained is (i.e., the quality of sleep is low) (see Non-Patent Literature (NPL) 1). […] This is generally consistent with the difference between the average sleeping heart rate in people with good quality sleep and that in people with poor sleep quality (FIG. 3 in NPL 1).
RMSSD is the square root of the mean squared differences of successive adjacent R-R intervals (interval from one QRS wave to the next QRS wave) and is an index of vagal tone intensity. A rise in RMSSD indicates increased parasympathetic activity or decreased sympathetic activity. […] According to the formula shown in FIG. 2 (right), KMP intake is considered to rejuvenate the age of autonomic nervous system function by 16.3 years.
The LF/HF ratio is a ratio of low frequency (LF) to high frequency (HF) power and represents the overall balance between the sympathetic nervous system and the parasympathetic nervous system. A higher LF/HF ratio indicates a state of sympathetic nervous system dominance, whereas a lower LF/HF ratio indicates parasympathetic nervous system dominance. […] According to the formula shown in FIG. 3 (right), KMP intake is considered to rejuvenate the age of autonomic nervous system function by 5.8 years.

[2] = tested on: athletes; experiment: Test 2: athlete questionnaire (0 to 10) and comments before and on day 30 of intake
Procedure: The following tests were carried out to investigate the functions of kaempferol. [table] [table] In addition to the above score evaluations, an optional evaluation of the mental and physical state after intake of the test sample as compared to that before the intake was obtained in the form of comments.

[3] = tested on: persons with meteoropathy; experiment: Test 3: meteoropathy symptom questionnaire before and after start of intake
Procedure: The test shown below was conducted to investigate the functions of kaempferol associated with meteoropathy. [table]

[4] = 10 mg KMP once a day, two weeks, vs placebo, FIG. 1
[5] = 10 mg KMP once a day, day 30 vs before intake, FIG. 4, FIG. 5
[6] = all subjects (159 athletes), 10 mg KMP once a day, day 30 vs before intake, FIG. 4
[7] = optional comment of a single subject, state after intake of the test sample vs before
[8] = swimmers (50 persons), day 30 vs before intake, FIG. 5
[9] = all symptoms, during KMP intake vs before, FIG. 7

## O=c1c(O)c(-c2ccc(O)cc2)oc2cc(O)cc(O)c12 [KMP, kaempferol]
[1]; [4]
  Reduction of sleeping heart rate on average: 3.5 bpm
  Sleep duration: no significant change
  Sleeping heart rate: significantly reduces
[1]; 10 mg KMP once a day, two weeks, vs placebo, FIG. 2 (left)
  RMSSD during sleep: increase in RMSSD value
[1]; 10 mg KMP once a day, two weeks, vs placebo, FIG. 3 (left)
  LF/HF ratio during sleep: reduces the LF/HF ratio
[1]; according to the formula shown in FIG. 2 (right)
  Rejuvenation of the age of autonomic nervous system function (from RMSSD vs age formula): 16.3 years
[1]; according to the formula shown in FIG. 3 (right)
  Rejuvenation of the age of autonomic nervous system function (from LF/HF ratio vs age formula): 5.8 years
[1]; granular food with 10 mg KMP once a day after breakfast, two weeks, vs placebo, 34 subjects, scale 0 to 100, FIG. 1
  Sleep score: significantly improves
[2]; [5]
  Achievement of exercise performance: useful
  Fatigue alleviation: useful
  Improvement of endurance (improved shortness of breath): useful
  Recovery from fatigue: useful
[2]; [6]
  Ease in sleep (questionnaire score): significant improvement
  Ease in waking up (questionnaire score): significant improvement
[2]; [7]
  Comments relating to menstruation: Menstrual pain has been relieved. Menstrual cycle; also recorded: irregularities has been improved; also recorded: Menstrual pain has been relieved and abdominal; also recorded: Swollen feet before menstruation has been relieved; also recorded: has come naturally; also recorded: returned to normal
  Comments relating to mental state: Have more motivation to practice; also recorded: Feel more highly motivated before a competition; also recorded: Feel more positive; also recorded: More mentally stable; also recorded: No longer feel depressed; also recorded: Feel less tired and more motivated to practice; also recorded: Feel better during practice; also recorded: Have become able to run more calmly than usual; also recorded: Feel more comfortable during running; also recorded: Feel more relaxed both during and outside of practice
  Other comments: The time taken to get rid of jet lag was reduced; also recorded: The symptoms of seasonal colds were not seen; also recorded: Stools have improved; also recorded: Bowel movements have improved; also recorded: Healing from injuries is faster; also recorded: Healing of fractures is much faster; also recorded: Healing of wounds after tooth extraction is faster; also recorded: Easier body weight loss; also recorded: Easier to control body weight gain; also recorded: Have improved concentration; also recorded: Symptoms of jet lag were alleviated
[2]; [8]
  Ease in sleep (questionnaire score), improvement in swimmers: particularly prominent
  Ease in waking up (questionnaire score), improvement in swimmers: particularly prominent
[3]; 10 mg KMP once a day, 4 consecutive weeks
  Effect on meteoropathy overall: effective in the treatment and improvement of meteoropathy
[3]; all 12 symptoms (stiff shoulders and neck, fatigue, lassitude, headache, overall ill health, irritation, depressed mood, inability to think straight, lower back pain, lethargy, anxiety, joint pain), 10 mg KMP once a day, 4 weeks, vs before intake, 393 subjects, FIG. 6
  Frequency of occurrence of each symptom of meteoropathy: significantly reduces
[3]; all 12 symptoms, KMP intake vs before intake, FIG. 8
  Degree of each symptom of meteoropathy (0-10 point scale): significantly alleviated
[3]; [9]
  Duration of each symptom of meteoropathy: significantly reduced duration
  Proportion of no occurrence of the symptom: increased proportion of no occurrence
